The values that follow are results of earlier work, collected in US20140370149A1, “METHODS FOR USING REBAUDIOSIDE C AS A FLAVOR ENHANCER” (International Flavors & Fragrances Inc., priority 2011, published 2014).

The conditions of the series: sweetness relative to sucrose.

For the molecule `C=C1C[C@@]23CC[C@H]4[C@@](C)(CCC[C@@]4(C)C(=O)O[C@@H]4O[C@H](CO)[C@@H](O)[C@H](O)[C@H]4O)[C@@H]2CC[C@]1(O[C@@H]1O[C@H](CO)[C@@H](O)[C@H](O)[C@H]1O[C@@H]1O[C@@H](C)[C@H](O)[C@@H](O)[C@H]1O)C3` [dulcoside A], the “times sweeter than sucrose” value is 30 times.
